{"source": "patent US20110262359A1", "about": "“COMPOSITIONS COMPRISING ENZYME-CLEAVABLE PRODRUGS OF ACTIVE AGENTS AND INHIBITORS THEREOF” (priority 2010, published 2011)", "key": {"[1]": {"test": "Pharmacokinetics of Compound KC-4 following PO administration to rats", "assay_type": "in vivo", "details": "rat PO; KC-4 6 mg/kg"}, "[2]": {"test": "Pharmacokinetics of Compound KC-4 following IV administration to rats", "assay_type": "in vivo", "details": "KC-4 2 mg/kg ([…])"}, "human μ-opioid receptor": {"target": "T1, human μ-opioid receptor (Homo sapiens, UniProt P35372)", "T1 construct": "expressed in transfected cells; host or cells: CHO", "T1 sequence (P35372 whole entry)": "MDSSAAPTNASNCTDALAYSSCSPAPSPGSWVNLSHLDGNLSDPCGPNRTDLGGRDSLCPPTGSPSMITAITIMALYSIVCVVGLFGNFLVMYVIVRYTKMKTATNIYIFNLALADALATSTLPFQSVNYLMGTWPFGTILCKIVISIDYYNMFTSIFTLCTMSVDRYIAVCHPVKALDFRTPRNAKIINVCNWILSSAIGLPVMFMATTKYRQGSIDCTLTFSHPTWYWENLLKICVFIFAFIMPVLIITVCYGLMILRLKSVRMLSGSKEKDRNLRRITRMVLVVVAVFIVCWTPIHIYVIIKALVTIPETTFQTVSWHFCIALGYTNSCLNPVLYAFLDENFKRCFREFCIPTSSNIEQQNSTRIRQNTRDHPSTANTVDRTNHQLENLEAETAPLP", "assay_type": "cell-based", "details": "EC50 at the human μ-opioid receptor, oxycodone or hydrocodone to the prodrug of that drug, same experiment"}, "[3]": {"target": "T2, trypsin from bovine pancreas (Bos taurus, UniProt P00760)", "T2 sequence (P00760 24-246)": "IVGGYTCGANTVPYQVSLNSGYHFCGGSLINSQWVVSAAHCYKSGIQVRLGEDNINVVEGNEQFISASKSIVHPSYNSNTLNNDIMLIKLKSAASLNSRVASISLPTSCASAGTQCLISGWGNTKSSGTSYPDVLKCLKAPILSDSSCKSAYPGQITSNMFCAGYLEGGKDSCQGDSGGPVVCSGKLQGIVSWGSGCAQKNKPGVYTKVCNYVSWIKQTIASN", "test": "In vitro trypsin conversion of ketone-modified opioid prodrugs to oxycodone or hydrocodone and inhibition by Compound 109", "assay_type": "biochemical", "set-up": "trypsin from bovine pancreas; purchased Sigma-Aldrich T8003; host or cells: bovine pancreas (tissue-derived)", "details": "0.761 mM prodrug, no inhibitor, 37° C."}, "[4]": {"test": "Oral administration of Compound KC-3 and trypsin inhibitor Compound 109 to rats", "assay_type": "in vivo", "details": "rat PO; KC-3 50 mg/kg with Compound 109 10 to 40 mg/kg"}, "[5]": {"test": "Oral administration of Compound PC-5 co-dosed with trypsin inhibitor Compound 109 to rats", "assay_type": "in vivo", "details": "rat PO; PC-5 6 mg/kg with Compound 109 0.1 to 10 mg/kg"}, "[6]": {"test": "Oral administration of Compound KC-2 co-dosed with increasing Compound 109 to rats", "assay_type": "in vivo", "details": "rat PO; KC-2 50 mg/kg with Compound 109 10 to 40 mg/kg"}, "[7]": {"test": "Oral administration of Compound KC-4 and trypsin inhibitor Compound 109 to rats", "assay_type": "in vivo", "details": "rat PO; KC-4 6 mg/kg with Compound 109 30 mg/kg"}, "[8]": {"test": "Oral administration of Compound PC-6 co-dosed with trypsin inhibitor Compound 109 to rats", "assay_type": "in vivo", "details": "rat PO; PC-6 6 mg/kg with Compound 109 0.01 to 30 mg/kg"}, "[9]": {"test": "Oral administration of Compound KC-2 and trypsin inhibitor Compound 109 to rats", "assay_type": "in vivo", "details": "rat PO; KC-2 6 mg/kg with Compound 109 30 mg/kg"}, "[10]": {"test": "Pharmacokinetics of Compound KC-6 following PO administration to rats", "assay_type": "in vivo", "details": "rat PO"}, "[11]": {"details": "male, Sprague Dawley, rat, in vivo"}, "[12]": {"details": "male, Sprague Dawley, rat, in vivo", "remark": "listed apart in the source"}, "[13]": {"test": "Pharmacokinetics of oxycodone prodrug Compound KC-2 or oxycodone following PO administration to rats", "assay_type": "in vivo", "details": "rat PO; Compound KC-2 20 mg/kg vs oxycodone 10 mg/kg"}, "[14]": {"test": "In vitro stability of Compound KC-2 to household chemicals and enzyme preparations", "assay_type": "physicochemical", "details": "vodka, baking soda, WINDEX, vinegar at RT or 80° C.; GNC Super Digestive, tenderizer, subtilisn at RT; 1 or 24 hr", "protocol": "Samples were incubated as described and aliquots removed at 1 hr and 24 hr and stabilized by adding each to a solution of 50% or 100% of 85% phosphoric acid solution to achieve a final pH of less than or equal to pH 4. The stabilized aliquots were then diluted 4- to 6-fold with water, vortex-mixed and applied to HPLC."}, "[15]": {"target": "T2, trypsin from bovine pancreas", "test": "Effect of trypsin inhibition on in vitro trypsin-mediated release of oxycodone from Compound KC-2", "assay_type": "biochemical", "set-up": "trypsin from bovine pancreas; purchased Sigma-Aldrich T8003; host or cells: bovine pancreas (tissue-derived)", "details": "no trypsin inhibitor; 0.761 mM Compound KC-2, 0.0228 mg/mL trypsin, 37° C."}, "[16]": {"test": "Pharmacokinetics of Compound KC-5 following PO administration to rats", "assay_type": "in vivo", "details": "rat PO"}, "[17]": {"details": "male, Sprague Dawley, rat, in vivo"}}, "note": "Where two headings read alike, the source gives them in different places."}
{"compound": "COc1ccc2c3c1OC1C(OC(=O)N(C)CCNC(=O)[C@H](CCCNC(=N)N)NC(=O)CC(=O)O)=CCC4[C@@H](C2)N(C)CC[C@]314", "note": "(stereo partly drawn) [Compound KC-4, N—((S)-1-{2-[(Dihydrocodein-6-enyloxycarbonyl)-methylamino]-ethylcarbamoyl-4-guanidino}-butyl)-malonamic acid]", "values": [{"measurement": "release of hydrocodone after oral administration", "setting": "[1]", "result": "leads to release of hydrocodone"}, {"measurement": "KC-4 Cmax (rat plasma)", "setting": "[2]", "result": "3960 ± 570", "unit": "ng/mL"}, {"measurement": "Drug/prodrug relative potency", "setting": "human μ-opioid receptor", "result": 15}, {"measurement": "Rate of hydrocodone formation, umol/h/BAEE U Average ± sd", "setting": "[3]; 241 BAEE U trypsin/mL", "result": "0.0911 ± 0.015", "unit": "umol/h/BAEE U"}, {"measurement": "Rate of hydrocodone formation, umol/h/BAEE U Average ± sd", "setting": "[3]; 4815 BAEE U trypsin/mL", "result": "0.0137 ± 0.0014", "unit": "umol/h/BAEE U"}]}
{"compound": "N=C(N)c1ccc2cc(OC(=O)c3ccc(N=C(N)N)cc3)ccc2c1", "note": "[Compound 109, 6-carbamimidoylnaphthalen-2-yl 4-(diaminomethyleneamino)benzoate]", "values": [{"measurement": "effect of Compound 109 on release of oxycodone from Compound KC-3", "setting": "[4]", "result": "attenuates Compound KC-3's ability to release oxycodone, both by suppressing Cmax and AUC and by delaying Tmax"}, {"measurement": "effect of Compound 109 on release of hydromorphone from Compound PC-5", "setting": "[5]", "result": "ability to attenuate Compound PC-5's ability to release hydromorphone in a dose dependent manner"}, {"measurement": "effect of Compound 109 on release of oxycodone from Compound KC-2", "setting": "[6]", "result": "ability to attenuate Compound KC-2's ability to release oxycodone in a dose dependent manner"}, {"measurement": "effect of Compound 109 on release of hydrocodone from Compound KC-4", "setting": "[7]", "result": "attenuates Compound KC-4's ability to release hydrocodone, both by suppressing Cmax and AUC and by delaying Tmax"}, {"measurement": "effect of Compound 109 on release of hydromorphone from Compound PC-6", "setting": "[8]", "result": "ability to attenuate Compound PC-6's ability to release hydromorphone in a dose dependent manner"}, {"measurement": "effect of Compound 109 on release of oxycodone from Compound KC-2", "setting": "[9]", "result": "attenuates Compound KC-2's ability to release oxycodone, both by suppressing Cmax and by delaying Tmax"}]}
{"compound": "COc1ccc2c3c1O[C@H]1C(OC(=O)N(C)C[C@H](NC(=O)[C@H](CCCNC(=N)N)NC(C)=O)C(=O)N(C)CC(=O)O)=CC[C@@]4(O)[C@@H](C2)N(C)CC[C@]314", "note": "[Compound KC-6, ({(S)-2-((S)-2-Acetylamino-5-guanidino-pentanoylamino)-3-[(oxycodone-enyloxycarbonyl)-methyl-amino]-propionyl}-methyl-amino)-acetic acid]", "values": [{"measurement": "oxycodone plasma profile compared to administration of oxycodone", "setting": "[10]", "result": "yields oxycodone plasma concentrations that exhibit a suppressed Cmax and AUC and delayed Tmax compared to administration of oxycodone"}, {"measurement": "Plasma/CSF partitioning coefficient", "setting": "[11]", "result": 815}, {"measurement": "Rate of oxycodone formation, umol/h/BAEE U Average ± sd", "setting": "[3]; 241 BAEE U trypsin/mL", "result": "0.0118 ± 0.0042", "unit": "umol/h/BAEE U"}, {"measurement": "Rate of oxycodone formation, umol/h/BAEE U Average ± sd", "setting": "[3]; 4815 BAEE U trypsin/mL", "result": "0.00571 ± 0.0002", "unit": "umol/h/BAEE U"}]}
{"compound": "COc1ccc2c3c1O[C@H]1C(OC(=O)N(C)CCNC(=O)[C@H](CCCNC(=N)N)NC(C)=O)=CC[C@@]4(O)[C@@H](C2)N(C)CC[C@]314", "note": "[Compound KC-2, Oxycodone 6-(N-methyl-N-(2-N′-acetylarginylamino)) ethylcarbamate]", "values": [{"measurement": "Plasma/CSF partitioning coefficient", "setting": "[12]", "result": 439}, {"measurement": "oxycodone plasma profile compared to administration of oxycodone", "setting": "[13]", "result": "yields oxycodone plasma concentrations that exhibit a suppressed Cmax and delayed Tmax compared to administration of oxycodone"}, {"measurement": "conversion of Compound KC-2 to oxycodone on exposure to household chemicals and enzyme preparations", "setting": "[14]", "result": "less than 10%"}, {"measurement": "Rate of oxycodone formation, umols/h/umol trypsin Average ± sd", "setting": "[15]", "result": "37.4 ± 0.9", "unit": "umols/h/umol trypsin"}]}
{"compound": "COc1ccc2c3c1O[C@H]1C(OC(=O)N(CCCCCC(=O)O)CCNC(=O)[C@H](CCCNC(=N)N)NC(C)=O)=CC[C@@]4(O)[C@@H](C2)N(C)CC[C@]314", "note": "[Compound KC-5, 6-{[2-(2-Acetylamino-5-guanidino-pentanoylamino)-ethyl]-[(5R, 9R,13S,14S)-4,5a-epoxy-6,7-didehydro-14-hydroxy-3-methoxy-17-methylmorphinan-6-oxy]-1-enyloxycarbonyl-amino}-hexanoic acid]", "values": [{"measurement": "oxycodone plasma profile compared to administration of oxycodone", "setting": "[16]", "result": "yields oxycodone plasma concentrations that exhibit a suppressed Cmax and AUC and delayed Tmax compared to administration of oxycodone"}, {"measurement": "expected fold less effective at CNS mu-opioid receptors than oxycodone", "setting": "administered intravenously in equimolar amounts, 316×50", "result": "about 15,800 fold"}, {"measurement": "Compound conc. in CSF", "setting": "[17]", "result": 36.4, "unit": "ng/mL"}, {"measurement": "Compound conc. in Plasma", "setting": "[17]", "result": "54,900 ng/mL"}, {"measurement": "Plasma/CSF partitioning coefficient", "setting": "[17]", "result": "1,508"}, {"measurement": "relative plasma/CSF partitioning coefficient of prodrug to oxycodone (fold less CSF penetrant than oxycodone)", "setting": "rat IV, 1,508/4.8", "result": "about 316 fold"}, {"measurement": "Rate of oxycodone formation, umol/h/BAEE U Average ± sd", "setting": "[3]; 241 BAEE U trypsin/mL", "result": "0.135 ± 0.005", "unit": "umol/h/BAEE U"}]}
